# Patent publication US20140315738A1, “MARINE MEDAKA GENES RESPONDING TO THE EXPOSURE OF ENDOCRINE-DISRUPTING CHEMICALS, AND METHOD FOR DIAGNOSING AN AQUATIC ECO-SYSTEM CONTAMINATION USING SAME” (priority 2011, published 2014)
# Tested on: Javanese medaka (Oryzias javanicus) livers
# Type: in vivo
# Conditions: 76 μg/L, 48 hr, liver
# Procedure: Javanese medaka was cultured in natural seawater filtered through three types of filters (10, 10 and 1 μm). Water temperature was fixed at 25° C. with underwater heater, and Artemia salina nauplii were fed once a day.
# To 3 L beaker with 2 L filtered seawater therein, 10 male Javanese medaka bred in culture water tank were transported each time, and acclimated for 24 hr. […] Additionally, five Javanese medaka of Example <1-1> were exposed to BPA (76 μg/L) for 48 hr. […] The Javanese medaka was transported to ice water, one at a time, which momentarily stunned it, followed by beheading and evisceration and liver removal.
# To the Javanese medaka livers of BPA exposed group (48 hr) produced from Example <1-2>, and of control group without exposure, 1 ml of TRI Reagent solution (Molecular Research Center Inc, Cincinnati, Ohio, USA) was added, homogenized with glass homogenizer, and left at room temperature for 5 min. Next, chloroform (200 μl) was added and mixed, left at room temperature for 10 min. After centrifugation for 15 min (12,000×g, 4° C.), supernatant was obtained, to which isopropanol (500 μl) was added and left at room temperature for 5 min. After centrifugation for about 20 min (12,000×g, 4° C.), solution was removed, thus leaving precipitate. To the precipitate, 70% ethanol solution (50 μl) was added and after centrifugation for 5 min, ethanol solution was removed, and the precipitate RNA was dried. After drying, the product was dissolved in appropriate amount of DEPC (diethylpyrocarbonate)-treated water.
# The entire RNA of the distilled exposed group and non-exposed group were labeled with Cy3 and Cy5 as follows, using Agilent's Low RNA Input Linear Amplification Kit Plus (Agilent Technologies, USA). To be specific, RNA (1 μg) was mixed with dT-promoter primer and MMLV-Reverse transcriptase. After reverse transcription at 40° C. for 2 hr, T7 polymerase was added, and linear amplification was done at 40° C. for 2 hr. After the amplification process explained above, the samples of experimental and control groups were labeled with Cy3-CTP and Cy5-CTP, respectively.
# Fluorescent-labeled cDNA sample was purified with Qiagen PCR purification kit, and eluted with distilled water. The purified, fluorescent-labeled cDNA sample was added to hybridization buffer (3×SSC, 0.3% SDS, 50% formamide, 20 μg Cot-1 DNA, 20 μg yeast tRNA), and concentrated with microcon YM-30. After hybridization, the hybridized compound was heated at 95° C. for 3 min for denaturization, and the temperature of the heated, hybridized compound was decreased by centrifugation for 30 sec at 12,000 g. The produced Javanese medaka cDNA microarray was covered with coverslip, and the denaturized, hybridized compound was pipetted. The microarray was put into GT-Hyb chamber for reaction to occur at 65° C. for 16 hr. After hybridization, the microarray was taken out of the chamber, underwent cleansing process as explained below, rotated and dried, and stored in a dark room until scanning. The Javanese medaka microarray was then scanned with Axon GenePix 4000B scanner (Axon Instrument, USA). On the GenePix Pro 6.0 program, dots from the scanned image were gridded using gridding file, and quantified to produce GPR file including analysis on cy5/Cy3 magnitudes and ratios.
# Based on the GPR file obtained with the GenePix Pro Program, the following analysis was made using analysis program, i.e., GeneSpring 7.3.1 (Agilent Technologies, USA). Normalization: by LOWESS (locally weighted regression scatterplot smoothing). Reliable gene): significant genes were obtained by flagging out dots whose sums of medial values were less than the background, or dots whose standard deviations of pixel values are not significant. Significant genes: dots whose normalized ratio is at […] higher interval, were screened. […]
# [1] = Down-regulation, + = increased expression level
# [2] = Up-regulation, − = decreased expression level
smiles,measurement,setting,value
"CC(C)(c1ccc(O)cc1)c1ccc(O)cc1 [BPA, Bisphenol A]","Fold difference, 40S ribosomal protein S19 (No. 115)",[1],+2.00 fold
same,"Fold difference, ATP citrate lyase (ACLY), transcript variant 2 (No. 154)",[1],+2.84 fold
same,"Fold difference, ATP-binding cassette transporter sub-family G member 2b (No. 146)",[1],+2.59 fold
same,"Fold difference, GTP cyclohydrolase 1 precursor (No. 148)",[1],+2.60 fold
same,"Fold difference, Iron-responsive element-binding protein 1 (No. 141)",[1],+2.25 fold
same,"Fold difference, Isocitrate dehydrogenase (No. 153)",[1],+2.72 fold
same,"Fold difference, NADH dehydrogenase subunit 4 (No. 126)",[1],+2.08 fold
same,"Fold difference, Nedd4 family interacting protein 2 (No. 132)",[1],+2.13 fold
same,"Fold difference, Restin (Cytoplasmic linker protein-170 alpha-2) (No. 133)",[1],+2.14 fold
same,"Fold difference, Ribosomal protein S14, transcript variant 4 (No. 158)",[1],+3.11 fold
same,"Fold difference, TBT-binding protein (No. 120)",[1],+2.02 fold
same,"Fold difference, Thyroid hormone receptor-associated protein complex 150 kDa component (No. 149)",[1],+2.62 fold
same,"Fold difference, Transforming growth factor-beta-induced protein ig-h3 (No. 114)",[1],+2.00 fold
same,"Fold difference, Translation initiation factor eIF-2B subunit epsilon (No. 157)",[1],+3.00 fold
same,"Fold difference, Transmembrane protein 85 (No. 159)",[1],+5.22 fold
same,"Fold difference, adult alpha-type globin (No. 147)",[1],+2.59 fold
same,"Fold difference, alcohol dehydrogenase Class VI (ADH8) (No. 116)",[1],+2.01 fold
same,"Fold difference, alpha-2-macroglobulin (No. 119)",[1],+2.01 fold
same,"Fold difference, alpha-2-macroglobulin-2 (No. 123)",[1],+2.03 fold
same,"Fold difference, apolipoprotein A-IV4 (No. 156)",[1],+2.94 fold
same,"Fold difference, arginyl-tRNA synthetase (No. 145)",[1],+2.52 fold
same,"Fold difference, calreticulin (No. 142)",[1],+2.25 fold
same,"Fold difference, carboxyl ester lipase, tandem duplicate 2 (No. 118)",[1],+2.01 fold
same,"Fold difference, catalase (No. 135)",[1],+2.16 fold
same,"Fold difference, choriogenin L (No. 130)",[1],+2.12 fold
same,"Fold difference, chymotrypsinogen 2-like protein (No. 140)",[1],+2.22 fold
same,"Fold difference, complement component C9 (No. 122)",[1],+2.03 fold
same,"Fold difference, complement factor B/C2-B (No. 131)",[1],+2.12 fold
same,"Fold difference, complement regulatory plasma protein (No. 128)",[1],+2.11 fold
same,"Fold difference, cyclin B2 (No. 152)",[1],+2.66 fold
same,"Fold difference, cyclin Y-like 1 (No. 127)",[1],+2.09 fold
same,"Fold difference, decorin mRNA (No. 155)",[1],+2.87 fold
same,"Fold difference, delta 6-desaturase (No. 143)",[1],+2.39 fold
same,"Fold difference, glutathione S transferase Rho-class (No. 162)",[1],+6.90 fold
same,"Fold difference, heat shock protein 84b (No. 160)",[1],+5.53 fold
same,"Fold difference, hepcidin-like precursor (No. 125)",[1],+2.07 fold
same,"Fold difference, hypoxanthine phosphoribosyltransferase 1 (No. 138)",[1],+2.17 fold
same,"Fold difference, kelch domain containing 10 (No. 144)",[1],+2.42 fold
same,"Fold difference, kelch-like ECH-associated protein 1b (No. 124)",[1],+2.06 fold
same,"Fold difference, keratin 15 (No. 121)",[1],+2.02 fold
same,"Fold difference, malate dehydrogenase (No. 117)",[1],+2.01 fold
same,"Fold difference, ornithine decarboxylase antizyme large isoform ORF1 (No. 134)",[1],+2.15 fold
same,"Fold difference, protein kinase C and casein kinase substrate in neurons 2 (No. 129)",[1],+2.12 fold
same,"Fold difference, protein phosphatase 2A regulatory subunit B′ delta isoform (No. 151)",[1],+2.63 fold
same,"Fold difference, ring finger protein 141 (No. 136)",[1],+2.16 fold
same,"Fold difference, sex hormone-binding globulin (No. 150)",[1],+2.62 fold
same,"Fold difference, warm-temperature-acclimation-related-65 kDa-protein (C79) (No. 161)",[1],+5.88 fold
same,"Fold difference, 5,10-methylenetetrahydrofolate reductase (NADPH)-like mRNA (No. 106)",[2],−2.06 fold
same,"Fold difference, 40S ribosomal protein S18 (No. 89)",[2],−2.43 fold
same,"Fold difference, 60S acidic ribosomal protein P1 (No. 100)",[2],−2.13 fold
same,"Fold difference, ATPase, H+ transporting, lysosomal, V1 subunit E isoform 1 (No. 109)",[2],−2.04 fold
same,"Fold difference, DEAD-box RNA-dependent helicase p68 mRNA (No. 113)",[2],−2.01 fold
same,"Fold difference, Glycerol-3-phosphate dehydrogenase (No. 80)",[2],−3.03 fold
same,"Fold difference, HSPC038 protein (No. 79)",[2],−3.05 fold
same,"Fold difference, MHC Class I Region (No. 74)",[2],−3.70 fold
same,"Fold difference, Putative transmembrane 4 superfamily member protein (No. 111)",[2],−2.02 fold
same,"Fold difference, TRAF-binding protein (No. 78)",[2],−3.17 fold
same,"Fold difference, Transcription initiation factor IIA gamma chain (No. 108)",[2],−2.06 fold
same,"Fold difference, Uridine phosphorylase 1 (No. 99)",[2],−2.16 fold
same,"Fold difference, bromodomain containing 2 (RING3) gene (No. 92)",[2],−2.35 fold
same,"Fold difference, c-type lysozyme mRNA (No. 98)",[2],−2.18 fold
same,"Fold difference, carnitine O-acetyltransferase precursor (No. 83)",[2],−2.78 fold
same,"Fold difference, cathepsin F (No. 105)",[2],−2.08 fold
same,"Fold difference, choriogenin Hminor (No. 102)",[2],−2.09 fold
same,"Fold difference, cyclin G2 (No. 95)",[2],−2.27 fold
same,"Fold difference, cysteine dioxygenase (No. 94)",[2],−2.32 fold
same,"Fold difference, estrogen receptor beta 2 (No. 91)",[2],−2.37 fold
same,"Fold difference, eukaryotic peptide chain release factor GTP-binding subunit (No. 88)",[2],−2.45 fold
same,"Fold difference, glucose-regulated protein 94 (No. 104)",[2],−2.09 fold
same,"Fold difference, glutathione S-transferase (No. 93)",[2],−2.33 fold
same,"Fold difference, heart-type fatty acid-binding protein (No. 101)",[2],−2.12 fold
same,"Fold difference, leukocyte elastase inhibitor (No. 110)",[2],−2.04 fold
same,"Fold difference, mitogen-activated protein kinase 1 (No. 107)",[2],−2.06 fold
same,"Fold difference, mitogen-activated protein kinase (p38) (No. 112)",[2],−2.02 fold
same,"Fold difference, muscleblind mRNA (No. 85)",[2],−2.53 fold
same,"Fold difference, phosphoenolpyruvate carboxykinase (No. 86)",[2],−2.51 fold
same,"Fold difference, proline rich 6 (No. 71)",[2],−5.99 fold
same,"Fold difference, proteasome subunit, beta type 8 (No. 81)",[2],−2.96 fold
same,"Fold difference, protein kinase C and casein kinase substrate in neurons 1 (No. 96)",[2],−2.22 fold
same,"Fold difference, protein phosphatase 2 regulatory subunit B beta (No. 87)",[2],−2.50 fold
same,"Fold difference, protein tyrosine phosphatase-like, member b (No. 77)",[2],−3.23 fold
same,"Fold difference, retinoid X receptor beta (RXRB) gene (No. 76)",[2],−3.42 fold
same,"Fold difference, ribosomal protein L13 (No. 103)",[2],−2.09 fold
same,"Fold difference, septin 7b (sept7b), transcript variant 1 (No. 97)",[2],−2.20 fold
same,"Fold difference, telomerase reverse transcriptase gene (No. 72)",[2],−4.31 fold
same,"Fold difference, trypsinogen (No. 82)",[2],−2.88 fold
same,"Fold difference, trypsinogen (No. 90)",[2],−2.42 fold
same,"Fold difference, tubulin, beta 5 (No. 84)",[2],−2.56 fold
same,"Fold difference, uridine phosphorylase 2 (No. 73)",[2],−3.77 fold
same,"Fold difference, vitellogenin II (No. 75)",[2],−3.69 fold
